The source of these data is patent US20230002367A1, “BIFUNCTIONAL COMPOUNDS” (Hoffmann-La Roche Inc., priority 2019, published 2023).

Where two headings read alike, the source gives them in different places.

The target in this experiment is T1, SMARCA2 (Homo sapiens, UniProt P51531).
T1 construct: endogenous in cells
The experiment can be described thus: SMARCA2 HiBiT degradation assay (cellular). The experiment is classed as cell-based. As to conditions: for DC50: read-out: HiBit A549 SMARCA2 IP.

Where [1] appears, read: A549, Emax = amount of residual protein remaining in the cell following compound treatment.
The mark [2] stands for this setting: SMARCA2 HiBiT cells, luminescence readout, 11-point titration from 10 μM, 6 hours or 16 hours.

T1 sequence (P51531 whole entry): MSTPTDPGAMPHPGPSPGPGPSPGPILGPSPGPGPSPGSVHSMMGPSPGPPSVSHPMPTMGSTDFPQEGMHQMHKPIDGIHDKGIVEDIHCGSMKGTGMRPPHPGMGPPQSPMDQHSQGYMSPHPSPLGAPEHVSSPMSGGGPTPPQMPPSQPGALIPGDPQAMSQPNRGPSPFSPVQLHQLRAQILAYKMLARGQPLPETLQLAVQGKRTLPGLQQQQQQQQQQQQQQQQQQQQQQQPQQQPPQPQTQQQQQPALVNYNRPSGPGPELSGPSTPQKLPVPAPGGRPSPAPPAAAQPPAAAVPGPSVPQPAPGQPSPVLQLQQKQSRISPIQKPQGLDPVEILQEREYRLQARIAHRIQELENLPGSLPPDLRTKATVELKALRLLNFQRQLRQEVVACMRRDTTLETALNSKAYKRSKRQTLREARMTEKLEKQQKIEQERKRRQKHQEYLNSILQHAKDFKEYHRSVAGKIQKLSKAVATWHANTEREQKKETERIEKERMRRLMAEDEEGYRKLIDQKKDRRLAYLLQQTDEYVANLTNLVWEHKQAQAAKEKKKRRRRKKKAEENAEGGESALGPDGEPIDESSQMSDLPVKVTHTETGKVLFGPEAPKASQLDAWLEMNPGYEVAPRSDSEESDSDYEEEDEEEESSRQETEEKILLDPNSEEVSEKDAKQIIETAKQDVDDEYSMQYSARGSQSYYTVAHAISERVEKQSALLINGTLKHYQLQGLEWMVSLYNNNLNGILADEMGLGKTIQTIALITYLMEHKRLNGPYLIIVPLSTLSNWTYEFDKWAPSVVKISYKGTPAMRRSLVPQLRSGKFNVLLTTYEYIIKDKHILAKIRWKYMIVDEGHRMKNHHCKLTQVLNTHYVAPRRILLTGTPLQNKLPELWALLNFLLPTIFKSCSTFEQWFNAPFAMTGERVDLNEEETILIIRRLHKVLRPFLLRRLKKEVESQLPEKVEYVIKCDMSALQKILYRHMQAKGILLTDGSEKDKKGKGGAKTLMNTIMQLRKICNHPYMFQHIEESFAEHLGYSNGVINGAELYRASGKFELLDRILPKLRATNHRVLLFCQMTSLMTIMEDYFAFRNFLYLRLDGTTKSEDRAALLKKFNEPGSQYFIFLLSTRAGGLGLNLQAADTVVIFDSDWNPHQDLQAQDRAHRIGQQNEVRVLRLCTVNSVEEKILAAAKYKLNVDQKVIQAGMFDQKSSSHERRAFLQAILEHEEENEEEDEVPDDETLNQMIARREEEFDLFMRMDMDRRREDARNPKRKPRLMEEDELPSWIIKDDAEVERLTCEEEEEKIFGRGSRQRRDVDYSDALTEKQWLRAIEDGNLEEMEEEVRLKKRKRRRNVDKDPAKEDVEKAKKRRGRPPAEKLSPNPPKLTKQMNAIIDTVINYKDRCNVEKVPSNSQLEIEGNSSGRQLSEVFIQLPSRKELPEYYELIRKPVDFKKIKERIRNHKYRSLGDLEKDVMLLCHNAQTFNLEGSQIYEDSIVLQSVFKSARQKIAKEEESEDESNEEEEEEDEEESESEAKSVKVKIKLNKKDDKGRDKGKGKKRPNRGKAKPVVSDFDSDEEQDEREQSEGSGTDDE

`Cc1ncsc1-c1ccc(CNC(=O)[C@@H]2C[C@@H](O)CN2C(=O)[C@@H](NC(=O)CCCCCC(=O)N2CCN(Cc3cccc(C#Cc4cc(-c5ccccc5O)nnc4N)c3)CC2)C(C)(C)C)cc1` [Example 61, (2S,4R)-1-[(2S)-2-[[7-[4-[[3-[2-[3-amino-6-(2-hydroxyphenyl)pyridazin-4-yl]ethynyl]phenyl]methyl]piperazin-1-yl]-7-oxo-heptanoyl]amino]-3,3-dimethyl-butanoyl]-4-hydroxy-N-[[4-(4-methylthiazol-5-yl)phenyl]methyl]pyrrolidine-2-carboxamide] registered an Emax under setting [1] of 59%. In addition, under setting [2], the DC50 was 519 nM.
Compound `Cc1ncsc1-c1ccc(CNC(=O)[C@@H]2C[C@@H](O)CN2C(=O)[C@@H](NC(=O)CCCCCCCCC(=O)N2CCN(c3ccc(N4CCCC(Oc5cc(-c6cc(F)ccc6O)nnc5N)C4)cc3)CC2)C(C)(C)C)cc1` (mixture of isomers) [Example 108, rac-(2S,4R)-4-hydroxy-N-[[4-(4-methylthiazol-5-yl)phenyl]methyl]-1-[rac-(2S)-2-[[10-[4-[4-[3-[3-amino-6-(5-fluoro-2-hydroxy-phenyl)pyridazin-4-yl]oxy-1-piperidyl]phenyl]piperazin-1-yl]-10-oxo-decanoyl]amino]-3,3-dimethyl-butanoyl]pyrrolidine-2-carboxamide] yielded an Emax (A549, different HIBIT SMARCA2 clone (footnote a), residual protein remaining) of 7.9%. Besides, under “different HIBIT SMARCA2 clone (footnote a)”, the DC50 was 68 nM.
`Cc1ncsc1-c1ccc([C@H](C)NC(=O)[C@@H]2C[C@@H](O)CN2C(=O)[C@@H](NC(=O)CCCCCC(=O)N2CCN(C(=O)c3ccc(OC4CN(c5cc(-c6ccccc6O)nnc5N)C4)cc3)CC2)C(C)(C)C)cc1` [Example 103, (2S,4R)-1-[(2S)-2-[[7-[4-[4-[1-[3-amino-6-(2-hydroxyphenyl)pyridazin-4-yl]azetidin-3-yl]oxybenzoyl]piperazin-1-yl]-7-oxo-heptanoyl]amino]-3,3-dimethyl-butanoyl]-4-hydroxy-N-[(1S)-1-[4-(4-methylthiazol-5-yl)phenyl]ethyl]pyrrolidine-2-carboxamide] registered an Emax under setting [1] of 60%. The DC50 under setting [2] was determined as 1890 nM.
Compound `Cc1ncsc1-c1ccc([C@H](C)NC(=O)[C@@H]2C[C@@H](O)CN2C(=O)[C@@H](NC(=O)CCCCCC(=O)N2CCN(c3cccc(OC4CN(c5cc(-c6ccccc6O)nnc5N)C4)c3)CC2)C(C)(C)C)cc1` [Example 94, (2S,4R)-1-[(2S)-2-[[7-[4-[3-[1-[3-amino-6-(2-hydroxyphenyl)pyridazin-4-yl]azetidin-3-yl]oxyphenyl]piperazin-1-yl]-7-oxo-heptanoyl]amino]-3,3-dimethyl-butanoyl]-4-hydroxy-N-[(1S)-1-[4-(4-methylthiazol-5-yl)phenyl]ethyl]pyrrolidine-2-carboxamide] yielded an Emax under setting [1] of 43%. For the same compound, the DC50 under setting [2] is 693 nM.
As to `Cc1ncsc1-c1ccc(CNC(=O)[C@@H]2C[C@@H](O)CN2C(=O)[C@@H](NC(=O)CCCCCCCCC(=O)N2CCN(c3cc(-c4ccccc4O)nnc3N)CC2C)C(C)(C)C)cc1` (stereo partly drawn) [Example 4, (2S,4R)-1-[(2S)-2-[[10-[4-[3-amino-6-(2-hydroxyphenyl)pyridazin-4-yl]-2-methyl-piperazin-1-yl]-10-oxo-decanoyl]amino]-3,3-dimethyl-butanoyl]-4-hydroxy-N-[[4-(4-methylthiazol-5-yl)phenyl]methyl]pyrrolidine-2-carboxamide], the Emax under setting [1] stood at 36%. For the same compound, the DC50 under setting [2] was 2930 nM.
In the same order, the values of `Cc1ncsc1-c1ccc(CNC(=O)[C@@H]2C[C@@H](O)CN2C(=O)[C@@H](NC(=O)CCCCCCCCC(=O)N2CCN(CCOc3cccc(C#Cc4cc(-c5ccccc5O)nnc4N)c3)CC2)C(C)(C)C)cc1` [Example 35, (2S,4R)-1-[(2S)-2-[[10-[4-[2-[3-[2-[3-amino-6-(2-hydroxyphenyl)pyridazin-4-yl]ethynyl]phenoxy]ethyl]piperazin-1-yl]-10-oxo-decanoyl]amino]-3,3-dimethyl-butanoyl]-4-hydroxy-N-[[4-(4-methylthiazol-5-yl)phenyl]methyl]pyrrolidine-2-carboxamide] are 39% and 952 nM.
Under setting [1], `Cc1ncsc1-c1ccc([C@@H](C)NC(=O)[C@H]2C[C@H](O)CN2C(=O)[C@H](NC(=O)CCOCCC(=O)N2CCN(c3ccc(N4CCCC(Oc5cc(-c6ccccc6O)nnc5N)C4)cc3)CC2)C(C)(C)C)cc1` (stereo in doubt) [Example 31, (2R,4S)-1-((2R)-2-(3-(3-(4-(4-(3-((3-amino-6-(2-hydroxyphenyl)pyridazin-4-yl)oxy)piperidin-1-yl)phenyl)piperazin-1-yl)-3-oxopropoxy)propanamido)-3,3-dimethylbutanoyl)-4-hydroxy-N-((R)-1-(4-(4-methylthiazol-5-yl)phenyl)ethyl)pyrrolidine-2-carboxamide] registered an Emax of 30%. For the same compound, under setting [2], the DC50 came out at 1920 nM.
In the same order, the values of `Cc1ncsc1-c1ccc([C@H](C)NC(=O)[C@@H]2C[C@@H](O)CN2C(=O)[C@@H](NC(=O)CCOCCOCCOCCC(=O)N2CCN(c3ccc(N4CCCC(Oc5cc(-c6ccccc6O)nnc5N)C4)cc3)CC2)C(C)(C)C)cc1` (mixture of isomers) [Example 46, rac-(2S,4R)-4-hydroxy-1-[rac-(2S)-2-[3-[2-[2-[3-[4-[4-[3-[3-amino-6-(2-hydroxyphenyl)pyridazin-4-yl]oxy-1-piperidyl]phenyl]piperazin-1-yl]-3-oxo-propoxy]ethoxy]ethoxy]propanoylamino]-3,3-dimethyl-butanoyl]-N-[rac-(1S)-1-[4-(4-methylthiazol-5-yl)phenyl]ethyl]pyrrolidine-2-carboxamide] are 51% and 2610 nM.
`Cc1ncsc1-c1ccc([C@H](C)NC(=O)[C@@H]2C[C@@H](O)CN2C(=O)[C@@H](NC(=O)CCCCCC(=O)N2CCN(c3ccc(CN4CCCC(Oc5cc(-c6ccccc6O)nnc5N)C4)cc3)CC2)C(C)(C)C)cc1` (mixture of isomers) [Example 40, rac-(2S,4R)-4-hydroxy-1-[rac-(2S)-2-[[7-[4-[4-[[3-[3-amino-6-(2-hydroxyphenyl)pyridazin-4-yl]oxy-1-piperidyl]methyl]phenyl]piperazin-1-yl]-7-oxo-heptanoyl]amino]-3,3-dimethyl-butanoyl]-N-[rac-(1S)-1-[4-(4-methylthiazol-5-yl)phenyl]ethyl]pyrrolidine-2-carboxamide] gave an Emax under setting [1] of 46%. In addition, under setting [2], the DC50 came out at 349 nM.
In the same order, the values of `Cc1ncsc1-c1ccc([C@H](C)NC(=O)[C@@H]2C[C@@H](O)CN2C(=O)[C@@H](NC(=O)CCCCCCCCC(=O)N2CCN(c3ccc(N4CCCC(Oc5cc(-c6ccccc6O)nnc5N)C4)cc3)CC2)C(C)(C)C)cc1` (mixture of isomers) [Example 33, rac-(2S,4R)-4-hydroxy-1-[rac-(2S)-2-[[10-[4-[4-[3-[3-amino-6-(2-hydroxyphenyl)pyridazin-4-yl]oxy-1-piperidyl]phenyl]piperazin-1-yl]-10-oxo-decanoyl]amino]-3,3-dimethyl-butanoyl]-N-[rac-(1S)-1-[4-(4-methylthiazol-5-yl)phenyl]ethyl]pyrrolidine-2-carboxamide] are 22% and 73 nM.
